Assay [1] deals with MOLM14 cells (MLL-AF9). Put plainly: Proliferation assay (spheroid-like growth, 8 d, live-cell imaging), MOLM14. Type of assay: cell-based, human. The conditions noted are these: absolute IC50 from AUC of confluence, read-out: (3) Spheroid assay MOLM14 (IC50 (μM)). The method, then: (§1) The anti-proliferative effect of menin/MLL protein/protein interaction inhibitor test compounds was assessed in human leukemia cell lines. The cell lines MV-4-1 1 and MOLM14 harbor MEL translocations and express the MEL fusion proteins MLL-AF4 and MLL-AF9, respectively, as well as the wildtype protein from the second allele. […] K562 was used as a control cell line containing two MLL wildtype alleles in order to exclude compounds that display general cytotoxic effects.
MV-4-1 1 and MOLM14 were cultured in RPMI-1640 (Sigma Aldrich) supplemented with 10% fetal bovine serum (HyClone), 2 mM L-glutamine (Sigma Aldrich) and 50 μg/ml gentamycin (Gibco). K562 were propagated in RPMI-1640 (Sigma Aldrich) supplemented with 20% fetal bovine serum (HyClone), 2 mM L-glutamine (Sigma Aldrich) and 50 μg/ml gentamycin (Gibco).
In order to assess the anti-proliferative effects, 1,500 MV-4-1 1, 300 MOLM14 or 750 K562 cells were seeded in 200 μl media per well in 96-well round bottom, ultra-low attachment plates (Costar, catalogue number 7007). Cell seeding numbers were chosen based on growth curves to ensure linear growth throughout the experiment. Test compounds were added at different concentrations and the DMSO content was normalized to 0.3%>. Cells were incubated for 8d at 37° C. and 5% C02. Spheroid like growth was monitored in real-time by live-cell imaging (IncuCyteZOOM, Essenbio, 4× objective) acquiring one image every four hours for 8d. Confluence (%) as a measure of spheroid size was determined using an integrated analysis tool.
In order to determine the cumulative effect of the test compounds over time, the area under the curve (AUC) in a plot of confluence against time was calculated. Confluence at the beginning of the experiment (t=0) was used as baseline for the AUC calculation.
Absolute IC50 values were calculated according to the following procedure: % Control=(AUC sample/AUC control)*100 AUC control=mean AUC of control values(cells without compound/DMSO as vehicle control)
A non-linear curve fit was applied using the least squares (ordinary) fit method to the plot of % control versus compound concentration. Based on this, the absolute IC50 value (half maximal inhibitory concentration of the test compound causing an anti-proliferative effect of 50% relative to the vehicle control) was calculated.

Assay [2] concerns the target T1, menin / FITC-MBM1 peptide (Menin/MLL) (Homo sapiens, UniProt O00255).
T1 sequence (O00255 1-610): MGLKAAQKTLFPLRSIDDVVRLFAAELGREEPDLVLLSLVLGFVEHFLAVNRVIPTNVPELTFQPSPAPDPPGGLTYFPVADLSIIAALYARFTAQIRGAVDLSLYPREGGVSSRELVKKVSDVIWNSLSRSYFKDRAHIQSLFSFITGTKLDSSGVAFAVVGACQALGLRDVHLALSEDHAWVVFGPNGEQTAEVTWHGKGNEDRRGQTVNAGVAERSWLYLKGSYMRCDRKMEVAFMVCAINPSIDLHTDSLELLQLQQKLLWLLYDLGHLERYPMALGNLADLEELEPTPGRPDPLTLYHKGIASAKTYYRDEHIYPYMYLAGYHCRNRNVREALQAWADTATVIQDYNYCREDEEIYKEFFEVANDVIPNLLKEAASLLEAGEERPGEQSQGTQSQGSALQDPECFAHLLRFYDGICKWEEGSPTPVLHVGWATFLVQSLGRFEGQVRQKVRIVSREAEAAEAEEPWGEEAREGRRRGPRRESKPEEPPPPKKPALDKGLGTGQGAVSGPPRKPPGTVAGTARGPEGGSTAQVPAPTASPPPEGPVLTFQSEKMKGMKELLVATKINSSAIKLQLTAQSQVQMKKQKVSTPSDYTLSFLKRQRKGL
The experiment in a line: Menin/MLL fluorescence polarization (FP) assay. It counts as binding. The conditions noted are these: read-out: (1) Menin FP assay (IC50 (μM)). The method, then: Pharmacological Part 1) Menin/MLL Fluorescence Polarization Assay
To a non-surface binding, black 384-well microtiter plate was added 50 nL 160× test compound in DMSO and 4 μL 2× menin in assay buffer (40 mM TrisHCl, pH 7.5, 50 mM NaCl, 1 mM DTT and 0.001% Tween 20). After incubation of test compound and menin for 10 min at ambient temperature, 4 μL 2×FITC-MBM1 peptide (FITC-β-alanine-SARWRPPARPGT-NH2) in assay buffer was added, the microtiter plate centrifuged at 1000 rpm for 1 min and the assay mixtures incubated for 15 min at ambient temperature. The relative amount of menin -FITC-MBM1 complex present in an assay mixture is determined by measuring the fluorescence polarization (FP) of the FITC label with a BMG Pherastar plate reader (ex. 485 nm/em. 520 nm) at ambient temperature. The final concentrations of reagents in the binding assay are 100 nM menin, 5 nM FITC-MBM1 peptide and 0.625%>DMSO in assay buffer. Dose-response titrations of test compounds are conducted using an 11 point, three-fold serial dilution scheme, starting at 31 μM.
Compound potencies were determined by first calculating % inhibition at each compound concentration according to equation 1: % inhibition=((HC−LC)−(FPcompound−LC))/(HC−LC))*100 (Eqn 1)
Where LC and HC are the FP values of the assay in the presence or absence of a saturating concentration of a compound that competes with FITC-MBM1 for binding to menin, and FP^compound is the measured FP value in the presence of the test compound. HC and LC FP values represent an average of at least 16 replicates per plate.
Where Bottom and Top are the lower and upper asymptotes of the dose-response curve, respectively, IC50 is the concentration of compound that yields 50% inhibition of signal and h is the Hill coefficient.

Assay [3] concerns K562 cells (two MLL wildtype alleles). The experiment in a line: Proliferation assay (spheroid-like growth, 8 d, live-cell imaging), K562 control cell line. The conditions noted are these: Homo sapiens, 192 h, absolute IC50 from AUC of confluence, read-out: (3) Spheroid assay K562. It counts as cell-based. The method, then:
as §1
MV-4-1 1 and MOLM14 were cultured in RPMI-1640 (Sigma Aldrich) supplemented with 10% fetal bovine serum (HyClone), 2 mM L-glutamine (Sigma Aldrich) and 50 μg/ml gentamycin (Gibco). […]
In order to assess the anti-proliferative effects, 1,500 MV-4-1 1, 300 MOLM14 or 750 K562 cells were seeded in 200 μl media per well in 96-well round bottom, ultra-low attachment plates (Costar, catalogue number 7007). […] Spheroid like growth was monitored in real-time by live-cell imaging (IncuCyteZOOM, Essenbio, 4× objective) acquiring one image every four hours for 8d. Confluence (%) as a measure of spheroid size was determined using an integrated analysis tool.
In order to determine the cumulative effect of the test compounds over time, the area under the curve (AUC) in a plot of confluence against time was calculated. […]

Experimental findings from US11530226B2, “Azepane inhibitors of menin-MLL interaction” (Janssen Pharmaceutica NV, priority 2016, dated 2022) are described below.

Where two headings read alike, the source gives them in different places. A value given as a limit tells only on which side of the number the result lay.

With `CC(C)CNC1CCCN(c2ncnc3sc(CC(F)(F)F)cc23)CC1` (single isomer, unassigned) [Compound B1A, N-isobutyl-1-(6-(2,2,2-trifluoroethyl)thieno[2,3-d]pyrimidin-4-yl)azepan-4-amine], the IC50 in assay [1] (Homo sapiens, MOLM-14, 192 h) was found to be 11.3 µM; in assay [2], 0.054 µM.

For `CC(C)CNC1CCCN(c2ncnc3sc(CC(F)(F)F)cc23)CC1` (single isomer, unassigned) [Compound B1B, N-isobutyl-1-(6-(2,2,2-trifluoroethyl)thieno[2,3-d]pyrimidin-4-yl)azepan-4-amine], the IC50 in assay [1] is greater than 15 µM; in assay [2], 0.44 µM.

Consider `FC(F)(F)Cc1cc2c(N3CCC[C@@H](NCc4ccccc4)CC3)ncnc2s1` [Compound 3, (R)N-benzyl-1-(6-(2,2,2-trifluoroethyl)thieno[2,3-d]pyrimidin-4-yl)azepan-4-amine], for which the IC50 in assay [1] (Homo sapiens, MOLM-14, 192 h) turned out to be 3.1 µM; in assay [2] it was 0.038 µM; in assay [3], 9.7 µM.

With `FC(F)(F)Cc1cc2c(N3CCC[C@H](NCc4ccccc4)CC3)ncnc2s1` [Compound 4, (S)-N-benzyl-1-(6-(2,2,2-trifluoroethyl)thieno[2,3-d]pyrimidin-4-yl)azepan-4-amine], the IC50 in assay [1] (Homo sapiens, MOLM-14, 192 h) worked out at 7.6 µM; in assay [2], 0.23 µM; in assay [3], 8.8 µM.
